Laboratory results from publication PMC7857870, “Design and Synthesis of 4-O-Podophyllotoxin Sulfamate Derivatives as Potential Cytotoxic Agents” (Evidence-based Complementary and Alternative Medicine : eCAM, 2021).
Entries after “also recorded” stand apart in the source; their conditions may differ.

What was measured:
[1] = system: human breast adenocarcinoma (MCF7); assay: MTT cytotoxicity assay, 72 h; type: cell-based; conditions: MTT 72 h, read-out: IC50 ± SD, MCF7
Description: (§1) Three cancer cell lines, human breast adenocarcinoma (MCF7), human ovary adenocarcinoma (A2780), and human colon adenocarcinoma (HT29), in addition the normal human fetal lung fibroblast (MRC5), were used. All cell lines were obtained from the ATCC. The three cancer cells were subcultured in RPMI-1640 media (10% FBS), while MRC5 was maintained in Eagles minimum essential medium (EMEM, 10% FBS), all at 37°C, 5% CO2, and 100% relative humidity.
(§2) As previously reported, the cytotoxicity of the six compounds, including podophyllotoxin as reference, was evaluated by the MTT assay. The three cell lines and one normal fibroblast cells were separately cultured in 96-well (3 × 10^3/well) and incubated at 37°C overnight. Final compound concentrations are as follows: 0, 0.005, 0.050, 0.500, 5.000, and 25.000 μM (DMSO 0.1%; n = 3). Plates were incubated for 72 h, followed by addition of MTT to each well. Plates were incubated for 3 hr, supernatant was aspirated, and DMSO was added to each well. The absorbance was read on multiplate reader. The optical density of the purple formazan A550 is proportional to the number of viable cells. Compound concentration causing 50% inhibition (IC50) compared to control cell growth (100%) was determined. GraphPad Prism version 5.00 for Windows, GraphPad Software, San Diego California, USA, was used for analysis.

[2] = system: human colon adenocarcinoma (HT29); assay: MTT cytotoxicity assay, 72 h; type: cell-based; conditions: HT-29, MTT 72 h, read-out: IC50 ± SD, HT29
Description: as §1, §2

[3] = system: human ovary adenocarcinoma (A2780); assay: MTT cytotoxicity assay, 72 h; type: cell-based; conditions: MTT 72 h, read-out: IC50 ± SD, A2780
Description: as §1, §2

MCF7 cells = assay: Annexin V FITC/PI apoptosis assay (flow cytometry); type: cell-based, human; conditions: 24 h treatment, 0.5-5.0 µM, dose-dependent
Description: Annexin V FITC/PI assay was used to evaluate possible ability to induce apoptosis. MCF7 cells were cultured in 6 well plates (1 × 10^5 cells/well) overnight at 37°C. Compounds 2, 3, and 7 were used to treat cells (0, 0.5, 1.0, and 5.0 µM). After 24 h, the supernatant of treated cells was collected in tubes and kept in ice, and cells were trypsinized and incubated at 37°C before being added to the tubes. MCF7 cells were centrifuged (2000 rpm) and washed with PBS (x1), and pellets resuspended in the binding buffer (100 μL) and annexin V FITC (10 μL). Tubes were incubated at room temperature in dark for 20 min, before adding binding buffer (400 μL) and 10 μL propidium iodide (PI). Analysis was performed by flow cytometry (BC, FC500, USA). Different cell populations (early apoptotic, late apoptotic, and necrotic cells) were identified by annexin V and PI staining.

[4] = system: normal human fetal lung fibroblast (MRC5); assay: MTT cytotoxicity assay, 72 h, normal cells; type: cell-based; conditions: MTT 72 h, normal fibroblasts, read-out: IC50 ± SD, MRC5
Description: as §1, §2

MCF7, A2780, and HT29 = assay: MTT cytotoxicity assay, text summary over the three cancer cell lines and selectivity versus MRC5; type: cell-based, human; conditions: for IC50: Homo sapiens, MTT, range over three cancer cell lines, read-out: activity (IC50) against the three cell lines MCF7, A2780 and HT29; for selectivity against MCF7, A2780 and HT29 compared to MRC5 cells: cancer cells versus normal MRC5 cells
Description: as §1, §2

[5] = Stability observation of the prepared compound; type: physicochemical; conditions: excluded from the biological assay

`COc1cc(C2c3cc4c(cc3C(OS(=O)(=O)NCc3ccccn3)C3COC(=O)C23)OCO4)cc(OC)c1OC` (centres unmarked) [Compound 3, 4-N-(2-Pyridinylmethyl)podophyllotoxin Sulfamate] gave an IC50 [1] of 150 ± 60 nM, an IC50 [2] of 222 ± 98 nM and an IC50 [3] of 179 ± 10 nM. The “increase of early apoptotic MCF7 cell population compared to control” value (shortened to “increase”) (MCF7 cells) was 1.7–2.2 fold, the IC50 [4] was 2030 ± 250 nM and the IC50 (MCF7, A2780, and HT29) was 150 to 220 nM. The “selectivity against MCF7, A2780 and HT29 compared to MRC5 cells” value (from here on “selectivity against MCF7, A2780 and HT29”) (MCF7, A2780, and HT29) was 9.1–13.5 fold.

`COc1cc(C2c3cc4c(cc3C(OS(N)(=O)=O)C3COC(=O)C23)OCO4)cc(OC)c1OC` (centres unmarked) [Compound 2, 4-O-Podophyllotoxin Sulfamate] showed an IC50 [1] of 648 ± 87 nM, an IC50 [2] of 1340 ± 637 nM and an IC50 [3] of 729 ± 363 nM. The “increase” value (MCF7 cells) was 1.7–2.2 fold, the IC50 [4] was 7510 ± 1510 nM and the IC50 (MCF7, A2780, and HT29) was at most 1000 nM. For the same compound, the “selectivity against MCF7, A2780 and HT29” value (MCF7, A2780, and HT29) was “less cytotoxic against MRC5 cells; also recorded: moderate selectivity”.

`COc1cc(C2c3cc4c(cc3C(OS(=O)(=O)Nc3ccccn3)C3COC(=O)C23)OCO4)cc(OC)c1OC` (centres unmarked) [Compound 5, 4-N-(2-Pyridinyl)podophyllotoxin Sulfamate] showed an IC50 [1] of 184 ± 52 nM, an IC50 [2] of 1048 ± 5 nM and an IC50 [3] of 132 ± 12 nM. For the same compound, the IC50 [4] was 47 ± 42 nM, the melting point was 230 °C (dec.) and the “selectivity against MCF7, A2780 and HT29” value (MCF7, A2780, and HT29) was “no selectivity”.

For `COc1cc(C2c3cc4c(cc3C(OS(=O)(=O)Nc3ccc(F)cc3)C3COC(=O)C23)OCO4)cc(OC)c1OC` (centres unmarked) [Compound 6, 4-N-(4-Flourophenyl)podophyllotoxin Sulfamate], the melting point was 220 °C and the “stability of the compound” value [5] was “unstable”.

Work on `COc1cc(C2c3cc4c(cc3C(OS(=O)(=O)Nc3ccc5cc6ccccc6cc5c3)C3COC(=O)C23)OCO4)cc(OC)c1OC` (centres unmarked) [Compound 7, 4-N-(2-Anthracenyl)podophyllotoxin Sulfamate] yielded an IC50 [1] of 2120 ± 989 nM, an IC50 [2] of 5080 ± 673 nM and an IC50 [3] of 3650 ± 1940 nM. For the same compound, the “increase” value (MCF7 cells) was 1.7–2.2 fold, the IC50 [4] was 9080 ± 1010 nM and the IC50 (MCF7, A2780, and HT29) was 2120 to 5080 nM.

`COc1cc([C@@H]2c3cc4c(cc3[C@H](O)[C@H]3COC(=O)[C@H]23)OCO4)cc(OC)c1OC` [Podophyllotoxin] showed an IC50 [1] of 4 ± 1 nM, an IC50 [2] of 2 ± 1 nM and an IC50 [3] of 7 ± 1 nM. The IC50 [4] was 43 ± 60 nM.

For `COc1cc(C2c3cc4c(cc3C(OS(=O)(=O)NCCc3ccccn3)C3COC(=O)C23)OCO4)cc(OC)c1OC` (centres unmarked) [Compound 4, 4-N-(2-Pyridinylethyl)podophyllotoxin Sulfamate], the IC50 [1] was 212 ± 10 nM, the IC50 [2] was 228 ± 75 nM and the IC50 [3] was 456 ± 180 nM. The IC50 [4] was 48 ± 3 nM, the melting point was 225 °C and the “selectivity against MCF7, A2780 and HT29” value (MCF7, A2780, and HT29) was “no selectivity”.
